Laboratory results as given in paper PMC7483518, “Destabilizing single chain major histocompatibility complex class I protein for repurposed enterokinase proteolysis” (Scientific Reports, 2020).
Where two headings read alike, the source gives them in different places.

What was measured:
[1] = molecular target: photolabile unchained HLA-A*11:01 pMHC-I protein (Homo sapiens, UniProt P04439, A114D/D185E/E176A/F33Y/L180Q/S129P/T187R); test: ELISA with photolabile unchained pMHC-I protein and UV irradiation; assay type: binding; conditions: for ELISA450nm: Table 2, 62.5 nM photolabile pMHC-I mixture, 5 μM peptide in PBS, UV 365 nm 2 × 5 min on ice, 2 h room temperature on anti-β2m plate, Abs450nm − Abs570nm, instability cutoff < 0.6
[2] = tested on: HLA-A*11:01 single chain protein; assay type: biochemical, Human; parameters: EZ50kDa / EZ50kD (pH 6.2) / EZ50kD (pH 8) / EZ50kD (normalised: EBV1101 = 1, EBV0201 = 0) / EZ50kDa rank: unit not given beside the values; conditions: for EZ50kD (pH 6.2): Table 2, instability cutoff < 0.3;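 as to EZ50kD (pH 6.2): scaled with positive control peptide as 1 and negative control peptide as 0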;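 as to EZ50kDa: intact 50 kDa band volume scaled with positive control peptide as 1 and negative as 0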
[3] = EASY MHC-I A*11:01, 2019-07-26, mean of the 2 replicates
[4] = EASY MHC-I A*11:01, 2019-08-01, mean of the 2 replicates
[5] = EASY MHC-I A*11:01, run 2019-08-08, 5min, mean of 2 replicates
[6] = pH 6.2, 37 °C, enterokinase, Eq. (4)
[7] = EASY MHC-I A*11:01, gel 2019-07-17 lr1028-1036 5min, replicate 1 (lanes 1-14)
[8] = EASY MHC-I A*11:01, gel 2019-07-17 lr1028-1036 5min, replicate 2 (lanes 15-28)
[9] = EASY MHC-I A*11:01, gel 2019-07-23 lr1037_1045_5min, replicate 1 (first lane set)
[10] = EASY MHC-I A*11:01, gel 2019-07-23 lr1037_1045_5min, replicate 2 (second lane set)

| Sequence | EASY_mean [1] | EZ_mean [2] | EASY_mean ([1]; […], mean, STDEV) | other results |
| --- | --- | --- | --- | --- |
| LMPFGSLLDY [CS1022] | 0.006828 | -0.05808 |  |  |
| KTSPKANKEI [EX1014] |  |  | -0.002118 | EZ_mean [2, 3]: -0.1022 |
| GRAKLLGAE [LR1016] |  | -0.03777 |  | EASY_mean ([1]; ELISA signal, mean, […]): -0.02066 |
| IPVAIKTSPKAN [EX1024] | -0.02211 |  |  | EZ_mean [2, 4]: -0.1301 |
| QLITQLMPFGS [CS1028] | -0.02964 | -0.07904 |  |  |
| TDFGRAKLL [LR1013] |  | -0.005317 | -0.002506 |  |
| STVQLIMQLMPF [TM1043] |  | -0.1271 | -0.05995 |  |
| DFGRAKLLG [LR1014] |  | -0.05414 |  | EASY_mean ([1]; ELISA signal, mean, […]): -0.02793 |
| TDFGRAKL [LR1004] |  | -0.05517 | -0.01664 |  |
| STVQLIMQLMP [TM1032] |  | -0.1174 |  | EASY_mean ([1]; ELISA signal, mean, […]): -0.06602 |
| VQLIMQLM [TM1004] |  |  | -0.05004 | EZ_mean ([2]; EASY MHC-I A*11:01, run 2019-08-06, 5min, mean of 2 replicates): -0.1305 |
| SLLDYVREHKD [CS1038] | -0.01097 | -0.03388 |  |  |
| FGSLLDYVREH [CS1036] | 0.0933 | 0.04199 |  | EZ50kDa ([2]; Table 3, EGFR peptide library (n = 177, duplicated), pH 6.2, 37 °C, 14 h, enterokinase, Eq. (4)): 0.0420 ± 0.010 |
| LTSTVQLIMQL [TM1030] |  | -0.07795 | -0.03337 |  |
| IKTSPKANK [EX1007] |  |  | -0.0128 | EZ_mean ([2]; EASY MHC-I A*11:01, 2019-07-25, mean of the 2 replicates): -0.05095 |
| MPFGSLLDY [CS1013] | -0.03532 | -0.0684 |  |  |
| TSTVQLIMQL [TM1020] |  |  | -0.02933 | EZ_mean [2, 5]: -0.0424; Norm_mean [2, 5]: -0.03086 |
| LTSTVQLIMQ [TM1019] |  |  | -0.02206 | EZ_mean [2, 5]: -0.0385; Norm_mean [2, 5]: -0.02611 |
| LIMQLMPFGC [TM1025] |  |  |  | EASY_mean ([1]; ELISA signal, mean, […]): -0.02724; EZ_mean [2, 5]: -0.05365; Norm_mean [2, 5]: -0.04493 |

| Sequence | EASY_mean [1] | EZ_mean [2] | EASY_mean ([1]; […], mean, STDEV) | other results |
| --- | --- | --- | --- | --- |
| FGRAKLLGAEEK [LR1048] | -0.01082 | -0.03879 |  |  |
| STIPETTVVR [putative peptide, HBV, no IEDB entry] |  |  |  | ELISA450nm [1]: 1.391; EZ50kD (pH 6.2) [2, 6]: 0.3226 |
| ITQLMPFGSLLD [CS1042] | -0.01907 | -0.03951 |  |  |
| ICLTSTVQLIM [TM1028] |  | -0.09759 | -0.04901 |  |
| ITQLMPFGS [CS1009] | -0.02581 | -0.06498 |  |  |
| AIKTSPKANKEI [EX1027] | -0.02114 |  |  | EZ_mean [2, 4]: -0.13 |
| KTSPKANKEIL [EX1021] |  |  | -0.001833 | EZ_mean [2, 3]: -0.102 |
| IMQLMPFGCLLD [TM1049] | -0.01469 | -0.08186 |  |  |
| MPFGSLLD [CS1004] | -0.003998 | -0.07336 |  |  |
| ITDFGRAKLLG [LR1033] | -0.04357 |  |  | EZ_mean ([2]; EASY MHC-I A*11:01, gel 2019-07-17 lr1028-1036 5min, mean of 2 replicates): -0.04472; EZ50kD (normalised: EBV1101 = 1, EBV0201 = 0) [2, 7]: -0.05531; Norm (50 kDa band adj. volume normalised: Undig_37C = 1, Dig_37C = 0) [2, 7]: -0.05765; EZ50kD (normalised: EBV1101 = 1, EBV0201 = 0) [2, 8]: -0.03414; Norm (50 kDa band adj. volume normalised: Undig_37C = 1, Dig_37C = 0) [2, 8]: -0.02949 |
| LITQLMPFGSL [CS1029] | -0.02804 | -0.07478 |  |  |
| ITDFGRAKLL [LR1022] |  | -0.0609 | -0.02159 |  |
| VAIKTSPKANKE [EX1026] | -0.02113 |  |  | EZ_mean [2, 4]: -0.1295 |
| GRAKLLGAEEK [LR1037] | 0.0001747 |  |  | EZ_mean ([2]; EASY MHC-I A*11:01, gel 2019-07-23 lr1037_1045_5min, mean of 2 replicates): -0.05993; EZ50kD (normalised: EBV1101 = 1, EBV0201 = 0) [2, 9]: -0.04549; Norm (50 kDa band adj. volume normalised: Undig_37C = 1, Dig_37C = 0) [2, 9]: -0.01318; EZ50kD (normalised: EBV1101 = 1, EBV0201 = 0) [2, 10]: -0.07437; Norm (50 kDa band adj. volume normalised: Undig_37C = 1, Dig_37C = 0) [2, 10]: 0.01353 |
| PVAIKTSPKANK [EX1025] | -0.00741 |  |  | EZ_mean [2, 4]: -0.1057 |
| LTSTVQLIMQLM [TM1041] |  | -0.1142 | -0.04948 |  |
| TVMDIISRR [reference compound] |  |  |  | ELISA450nm [1]: 1.944; EZ50kD (pH 6.2) [2, 6]: 1.086 |
| QLMPFGSLLD [CS1021] | 0.0006677 | -0.06288 |  |  |
